Residues, ends and D or L forms follow the SMILES beside them.

The values that follow come from patent US20180125921A1, “USE OF QBP1 PEPTIDE FOR THE INHIBITION OF MEMORY CONSOLIDATION” (CONSEJO SUPERIOR DE INVESTIGACIONES CIENTÍFICAS, priority 2015, published 2018).

One data set deals with T1, Sup35 (Saccharomyces cerevisiae, UniProt P05453).
T1 sequence (P05453 1-253 limits assumed): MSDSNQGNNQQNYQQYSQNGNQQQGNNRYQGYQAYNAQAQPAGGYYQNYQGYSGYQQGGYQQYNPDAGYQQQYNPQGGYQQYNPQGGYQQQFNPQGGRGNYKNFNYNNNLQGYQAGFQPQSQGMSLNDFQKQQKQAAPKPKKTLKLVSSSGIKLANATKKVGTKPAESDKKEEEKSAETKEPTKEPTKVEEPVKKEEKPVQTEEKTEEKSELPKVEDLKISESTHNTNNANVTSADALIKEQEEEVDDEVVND
To be noted: cited from earlier work.

The next data set has as its system polyQ tracks. To be noted: administered orally; cited from earlier work.
Data set [1] concerns monomeric expanded polyQ proteins. To be noted: cited from earlier work.
In a further data set the target is -synuclein (Homo sapiens, UniProt P37840). To be noted: cited from earlier work.
The target of another data set is Tau (Homo sapiens, UniProt P10636). Particulars: personal communication; cited from earlier work.
Sequence of Tau (P10636 whole entry): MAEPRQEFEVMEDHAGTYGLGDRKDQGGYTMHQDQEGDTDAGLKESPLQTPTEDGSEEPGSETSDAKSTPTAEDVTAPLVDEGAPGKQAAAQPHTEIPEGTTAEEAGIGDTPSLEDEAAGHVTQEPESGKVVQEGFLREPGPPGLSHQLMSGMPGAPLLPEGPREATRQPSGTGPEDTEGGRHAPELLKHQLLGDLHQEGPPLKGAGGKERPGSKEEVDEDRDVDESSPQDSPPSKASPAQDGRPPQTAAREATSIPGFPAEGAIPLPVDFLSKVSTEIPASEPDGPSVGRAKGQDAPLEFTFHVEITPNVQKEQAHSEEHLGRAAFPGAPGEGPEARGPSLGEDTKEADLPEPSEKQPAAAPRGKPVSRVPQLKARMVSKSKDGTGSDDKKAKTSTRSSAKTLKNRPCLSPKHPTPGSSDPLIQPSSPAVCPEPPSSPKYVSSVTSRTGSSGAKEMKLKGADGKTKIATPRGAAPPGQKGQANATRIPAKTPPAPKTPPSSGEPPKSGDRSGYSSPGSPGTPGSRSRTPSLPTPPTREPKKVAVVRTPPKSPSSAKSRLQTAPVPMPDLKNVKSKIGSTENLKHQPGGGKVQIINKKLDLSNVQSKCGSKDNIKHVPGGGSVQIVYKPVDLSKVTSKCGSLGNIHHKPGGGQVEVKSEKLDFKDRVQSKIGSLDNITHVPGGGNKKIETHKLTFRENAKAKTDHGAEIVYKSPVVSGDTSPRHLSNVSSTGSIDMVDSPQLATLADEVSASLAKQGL
A further data set concerns the target full-length Orb2A (Drosophila melanogaster, UniProt Q9VSR3). Briefly: Isothermal titration calorimetry (ITC) of peptide interaction with Orb2A. To be noted: 25° C., PBS pH 7.4, Orb2A injected into excess peptide; no quantitative analysis. (In general: Isothermal titration calorimetry measures the heat released or taken up as one component is titrated into another.)

Data set [2] deals with Orb2A PLD. Briefly: TEM imaging of Orb2A PLD oligomers and fibers. Particulars: protein 10 μM, peptide 50 μM, 7 days at 37° C.
Experimental: (§1) Buffers, time and storage conditions, and protein/peptide concentrations used in the aforementioned techniques were as follows: • AFM-SMFS: Experiments were performed using 2-3 μM polyproteins in 10 mM Tris-HCl pH 7.5 at room temperature with proteins incubated at 4° C. between sessions and NTA-Ni2+ functionalized coverslips. For experiments in the presence of the peptides QBP1 and SCR, 20 μM of the peptide were used dissolved in DMSO, and the samples were incubated overnight with the peptide at 4° C. before the measurement. • CD: For far-UV CD spectra it was used a protein concentration of 2-5 μM in 5 mM NaH2PO4, with 0.02% NaN3, pH 6.0. […] The secondary structure content of each protein and its evolution during incubation were estimated by spectra deconvolution using the CDNN analysis program (Bohm, G., et al., Quantitative analysis of protein far UV circular dichroism spectra by neural networks, Protein Eng (1992) 5 (3): 191-5). For thermal stability measurements, the ellipticity changes induced by increasing the temperature (at a constant heating rate of 60° C./h) were measured at 222 nm in 5 mM NaH2PO4 pH 6.0 using a protein concentration of 20 μM. • Turbidimetry: Protein samples used were at 10 μM in PBS+0.02% NaN3, pH 7.0 for all the kinetic experiments. […]
In a further data set the test system is Drosophila melanogaster. To be noted: for short-term memory (courtship suppression immediately after training) / long-term memory (courtship suppression after 24 hours): Elav-Gal4 driven expression; for short-term memory (courtship suppression immediately after training): 5 min after training; for long-term memory (courtship suppression after 24 hours): 24 h after training; for effect on fly development / normal courtship behaviour: expression in the nervous system; for normal courtship behaviour: untrained flies.

The test system of data set [3] is Orb2A PLD. Briefly: Far-UV CD spectroscopy of Orb2A PLD over time. Particulars: peptide five fold molar excess, 37° C.
Experimental: as §1
The subject of data set [4] is Orb2A PLD. Nature of the data set: AFM-SMFS conformational polymorphism of Orb2A PLD. To be noted: 20 μM peptide.
Experimental: Buffers, time and storage conditions, and protein/peptide concentrations used in the aforementioned techniques were as follows: • AFM-SMFS: Experiments were performed using 2-3 μM polyproteins in 10 mM Tris-HCl pH 7.5 at room temperature with proteins incubated at 4° C. between sessions and NTA-Ni2+ functionalized coverslips. For experiments in the presence of the peptides QBP1 and SCR, 20 μM of the peptide were used dissolved in DMSO, and the samples were incubated overnight with the peptide at 4° C. before the measurement. • CD: For far-UV CD spectra it was used a protein concentration of 2-5 μM in 5 mM NaH2PO4, with 0.02% NaN3, pH 6.0. The QBP1 or SCR (when used) was five fold molar excess relative to proteins (final concentrations 10 to 25 μM with the final concentration (v/v) of DMSO below 0.01%). After recording the first protein spectrum (hour 0), the protein was incubated at 37° C. without stirring and additional spectra were collected at the indicated times. The secondary structure content of each protein and its evolution during incubation were estimated by spectra deconvolution using the CDNN analysis program (Bohm, G., et al., Quantitative analysis of protein far UV circular dichroism spectra by neural networks, Protein Eng (1992) 5 (3): 191-5). For thermal stability measurements, the ellipticity changes induced by increasing the temperature (at a constant heating rate of 60° C./h) were measured at 222 nm in 5 mM NaH2PO4 pH 6.0 using a protein concentration of 20 μM. • Turbidimetry: Protein samples used were at 10 μM in PBS+0.02% NaN3, pH 7.0 for all the kinetic experiments. Samples were incubated at 37° C. without stirring. SCR and QBP1 peptides were used at 50 μM. • CR binding assay: Samples were aged for 7 days at 37° C. with 0.02% NaN3 and no stirring prior to performing the measurements. The protein samples (10 μM) were dialyzed in PBS pH 7.0 for the experiments. SCR and QBP1 peptides were used at 50 μM. • TEM imaging: Protein samples (10 μM) were dialyzed in PBS pH 7.0 for all the TEM measurements. Images were taken after 7 days of incubation at 37° C. in the presence of 0.02% NaN3 without stirring.
In data set [5] the test system is Orb2A PLD. Briefly: Turbidimetry of Orb2A PLD amyloidogenesis. Particulars: protein 10 μM, peptide 50 μM, 37° C., turbidity at 405 nm.
Experimental: as §1
Data set [6] relates to Orb2A PLD. Briefly: CR binding assay of Orb2A PLD amyloid. To be noted: protein 10 μM, peptide 50 μM, aged 7 days at 37° C.
Experimental: as §1

Sequence of full-length Orb2A (Q9VSR3 1-551 isoform Q9VSR3-2): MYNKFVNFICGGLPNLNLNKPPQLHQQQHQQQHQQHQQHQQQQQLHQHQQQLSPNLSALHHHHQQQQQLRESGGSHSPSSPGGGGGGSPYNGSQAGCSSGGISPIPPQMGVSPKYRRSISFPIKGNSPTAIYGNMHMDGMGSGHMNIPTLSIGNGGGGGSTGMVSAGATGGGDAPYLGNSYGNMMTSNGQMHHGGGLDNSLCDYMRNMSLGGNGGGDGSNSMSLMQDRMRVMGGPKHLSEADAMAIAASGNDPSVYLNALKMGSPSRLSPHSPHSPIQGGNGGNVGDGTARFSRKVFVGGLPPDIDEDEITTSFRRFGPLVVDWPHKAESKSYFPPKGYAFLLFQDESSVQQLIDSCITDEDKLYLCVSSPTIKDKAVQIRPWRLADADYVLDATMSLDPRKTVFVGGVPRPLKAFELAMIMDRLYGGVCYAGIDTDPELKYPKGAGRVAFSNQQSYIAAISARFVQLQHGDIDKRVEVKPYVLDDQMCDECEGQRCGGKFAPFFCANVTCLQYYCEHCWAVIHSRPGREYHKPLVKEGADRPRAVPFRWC
Experimental for full-length Orb2A: Proteins were equilibrated in PBS, pH 7.4, by gel-filtration chromatography and the equilibration buffer was used to prepare the peptide solutions. Protein/peptide binding was tested by successive injections of protein sample (10 to 25 μl each) into the reaction cell loaded with peptide at high final [peptide]/[protein] molar ratios. The apparent heat of reaction for each injection was obtained by integration of the peak area. The heats developed on protein or peptide dilutions were determined in separate runs loading the sample cell or the injection syringe with buffer, respectively, in the conditions used for the binding experiments. […] Protein (Orb2A, 185 μM) and ligand (QBP1 and SCR, 300 μM and 51 μM, respectively) concentrations in the loading solutions were measured spectrophotometrically using their respective extinction coefficients. • Drosophila strains.

With “QBP1: polyglutamine binding peptide 1, hydrophobic peptide, known inhibitor of amyloids including HttQ expansions (SNWKWWPGIFD; QBP1)”, the “amyloidogenesis (conformational polymorphism, oligomerization, fibrillogenesis)” value with Sup35 and with -synuclein was “inhibits amyloidogenesis” each time. Besides, in the data set on polyQ tracks, the “amyloidogenesis of polyQ tracks in Drosophila” value was “can inhibit amyloidogenesis”. For the same compound, the “β-conformational transition, oligomerization, fibrillogenesis, cytotoxicity and neurodegeneration of expanded polyQ proteins” value in [1] is “suppressing oligomerization, fibrillogenesis as well as associated cytotoxicity and neurodegeneration”. In addition, the amyloidogenesis entry with Tau is reported as “not”.
`CC[C@H](C)[C@H](NC(=O)[C@@H]1CCCN1C(=O)[C@H](Cc1c[nH]c2ccccc12)NC(C)=O)C(=O)N[C@@H](Cc1c[nH]c2ccccc12)C(=O)N[C@@H](CCCCN)C(=O)NCC(=O)N[C@@H](Cc1c[nH]c2ccccc12)C(=O)N[C@@H](Cc1ccccc1)C(N)=O` [SCR, Ac-WPIWKGWF-NH2] (Ac-WPIWKGWF-NH2): on full-length Orb2A, the “interaction with Orb2A by ITC” value was “marginal interaction”. In addition, in the data set with Orb2A PLD [2], the “formation of oligomers and fibers by TEM” value is “not”. Also, in the data set with Drosophila melanogaster, the “short-term memory (courtship suppression immediately after training)” value was “does not interfere with short-term memory”, the “long-term memory (courtship suppression after 24 hours)” value is “no effect”, the “effect on fly development” value is on record as “did not affect fly development” and the normal courtship behaviour result is on record as “slightly diminished”. In addition, the “oligomerization and loss of far-UV CD signal due to aggregation and precipitation” value in the data set with Orb2A PLD [3] is listed as “not”. Moreover, the “effect on NM/M conformational transition (SMFS)” value in the data set on Orb2A PLD [4] (overnight 4° C.) was “no effect”.
Take `CC[C@H](C)[C@H](NC(=O)CNC(=O)[C@@H]1CCCN1C(=O)[C@H](Cc1c[nH]c2ccccc12)NC(=O)[C@H](Cc1c[nH]c2ccccc12)NC(=O)[C@H](CCCCN)NC(=O)[C@H](Cc1c[nH]c2ccccc12)NC(C)=O)C(=O)N[C@@H](Cc1ccccc1)C(N)=O` [QBP1-f, Ac-WKWWPGIF-NH2] (Ac-WKWWPGIF-NH2): on full-length Orb2A, the “interaction with Orb2A by ITC” value is “physically interacts with Orb2A”. In addition, the “formation of oligomers and fibers by TEM” value in the data set with Orb2A PLD [2] was “dramatic reduction in the formation of both oligomers and fibers”. Also, in the data set with Orb2A PLD [5], the “Orb2A PLD amyloidogenesis monitored by turbidimetry” value is listed as “inhibited Orb2A PLD amyloidogenesis”. In the data set on Drosophila melanogaster, the “short-term memory (courtship suppression immediately after training)” value is reported as “does not interfere with short-term memory”, the “long-term memory (courtship suppression after 24 hours)” value was “loss of long-term memory”, the “effect on fly development” value is reported as “did not affect fly development” and the normal courtship behaviour result is reported as “slightly diminished”. The “Orb2A PLD amyloidogenesis monitored by CR binding” value in the data set on Orb2A PLD [6] is “inhibited Orb2A PLD amyloidogenesis”. For the same compound, the “oligomerization and loss of far-UV CD signal due to aggregation and precipitation” value in the data set with Orb2A PLD [3] was “suppressed the oligomerization processes and decreased the loss of signal due to aggregation and precipitation”. Also, in the data set on Orb2A PLD [4], the “putative M events (SMFS incomplete recordings)” value is on record as “fewer putative M events” and the “structures formed per molecule (SMFS force peaks)” value was “fewer structures formed per molecule”. Besides, the “formation of M conformers (SMFS)” value in the data set with Orb2A PLD [4] (overnight 4° C., reduced from 37.7%) worked out at 16.1%.
